# Measured values published in the supplement of paper PMC10307832.
# How the values were obtained:
# Experiment in all cases: relative viability (nuclei count vs DMSO), 5 days (fraction); higher = more cells survive
# [1] = compound: NC(=O)[C@@H](CCC(F)(F)F)N(Cc1ccc(-c2ncon2)cc1F)S(=O)(=O)c1ccc(Cl)cc1 [Avagacestat]
# Method in brief: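 Hoechst staining, done together with fixation and permeabilisation, marked nuclei for 4× imaging and MetaXpress counting. This followed 5 days without medium change after lung cancer cell lines, kept overnight at 37 °C in 1536-well plates, were pinned with five library-drug doses (not always all listed) spaced by √10 on vehicle-anchored plates. Viability is the ratio of treated-well to vehicle-well nuclei, expressed as a median across plates. Plates passed only at control CV below 25% with at least one doubling.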
# [2] = compound: NC(=O)[C@@H](CCC(F)(F)F)N(Cc1ccc(-c2ncon2)cc1F)S(=O)(=O)c1ccc(Cl)cc1 [Avagacestat] + CC(C)C[C@H](NC(=O)[C@H](Cc1ccccc1)NC(=O)c1cnccn1)B(O)O [Bortezomib] (partner 0.002 µM)
# Method in brief: (§1)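 Lung cancer cell lines in 1536-well plates were dosed by pin tool the day after seeding, either with one drug alone or with a fixed anchor-drug dose plus five library-drug doses (not always all listed) in √10 steps. After 5 days, cells were fixed and their nuclei stained in one step (final 0.05% Triton X-100, 1% formaldehyde, 1 ug/ml Hoechst), then counted on 4× images. Relative viability is the nuclei count in treated wells divided by that in vehicle wells. Values are medians of duplicate plates.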
# [3] = compound: NC(=O)[C@@H](CCC(F)(F)F)N(Cc1ccc(-c2ncon2)cc1F)S(=O)(=O)c1ccc(Cl)cc1 [Avagacestat] + O=C(c1cc(Cc2n[nH]c(=O)c3ccccc23)ccc1F)N1CCN(C(=O)C2CC2)CC1 [Olaparib] (partner 8 µM)
# Method in brief: as §1
# [4] = compound: NC(=O)[C@@H](CCC(F)(F)F)N(Cc1ccc(-c2ncon2)cc1F)S(=O)(=O)c1ccc(Cl)cc1 [Avagacestat] + CS(=O)(=O)CCNCc1ccc(-c2ccc3ncnc(Nc4ccc(OCc5cccc(F)c5)c(Cl)c4)c3c2)o1 [Lapatinib] (partner 2 µM)
# Method in brief: as §1
# [5] = compound: NC(=O)[C@@H](CCC(F)(F)F)N(Cc1ccc(-c2ncon2)cc1F)S(=O)(=O)c1ccc(Cl)cc1 [Avagacestat] + COc1cc2c(Oc3ccc(NC(=O)C4(C(=O)Nc5ccc(F)cc5)CC4)cc3F)ccnc2cc1OCCCN1CCOCC1 [Foretinib] (partner 0.25 µM)
# Method in brief: as §1
# [6] = compound: NC(=O)[C@@H](CCC(F)(F)F)N(Cc1ccc(-c2ncon2)cc1F)S(=O)(=O)c1ccc(Cl)cc1 [Avagacestat] + C[C@@H](Oc1cc(-c2cnn(C3CCNCC3)c2)cnc1N)c1c(Cl)ccc(F)c1Cl [Crizotinib] (partner 1 µM)
# Method in brief: as §1
# [7] = compound: NC(=O)[C@@H](CCC(F)(F)F)N(Cc1ccc(-c2ncon2)cc1F)S(=O)(=O)c1ccc(Cl)cc1 [Avagacestat] + CC1(C)CCC(c2ccc(Cl)cc2)=C(CN2CCN(c3ccc(C(=O)NS(=O)(=O)c4ccc(N[C@H](CCN5CCOCC5)CSc5ccccc5)c(S(=O)(=O)C(F)(F)F)c4)cc3)CC2)C1 [Navitoclax] (partner 0.5 µM)
# Method in brief: as §1
# [8] = compound: NC(=O)[C@@H](CCC(F)(F)F)N(Cc1ccc(-c2ncon2)cc1F)S(=O)(=O)c1ccc(Cl)cc1 [Avagacestat] + C[C@]1(O)C[C@@H](c2nc(-c3ccc4ccc(-c5ccccc5)nc4c3)c3c(N)nccn32)C1 [Linsitinib] (partner 1 µM)
# Method in brief: as §1
# [9] = compound: NC(=O)[C@@H](CCC(F)(F)F)N(Cc1ccc(-c2ncon2)cc1F)S(=O)(=O)c1ccc(Cl)cc1 [Avagacestat] + Cc1nc(NC(=O)N2CCC[C@H]2C(N)=O)sc1-c1ccnc(C(C)(C)C(F)(F)F)c1 [Alpelisib] (partner 2 µM)
# Method in brief: as §1
# [10] = compound: NC(=O)[C@@H](CCC(F)(F)F)N(Cc1ccc(-c2ncon2)cc1F)S(=O)(=O)c1ccc(Cl)cc1 [Avagacestat] + CS(=O)(=O)N1CCN(Cc2cc3nc(-c4cccc5[nH]ncc45)nc(N4CCOCC4)c3s2)CC1 [Pictilisib] (partner 1 µM)
# Method in brief: as §1
# [11] = compound: NC(=O)[C@@H](CCC(F)(F)F)N(Cc1ccc(-c2ncon2)cc1F)S(=O)(=O)c1ccc(Cl)cc1 [Avagacestat] + N=C(N)NC(=N)NCCc1ccccc1 [Phenformin] (partner 250 µM)
# Method in brief: as §1
# [12] = compound: NC(=O)[C@@H](CCC(F)(F)F)N(Cc1ccc(-c2ncon2)cc1F)S(=O)(=O)c1ccc(Cl)cc1 [Avagacestat] + Nc1ncn([C@H]2C[C@H](O)[C@@H](CO)O2)c(=O)n1 [Decitabine] (partner 2 µM)
# Method in brief: as §1
cell line,measurement,setting,value
Calu-6,relative viability,[1]; 0.08 µM,1.15
same,relative viability,[1]; 0.253 µM,1.22
same,relative viability,[1]; 0.8 µM,1.13
same,relative viability,[1]; 2.53 µM,1.07
same,relative viability,[1]; 8 µM,1.04
same,relative viability,[2]; first compound 0.08 µM,1.27
same,relative viability,[2]; first compound 0.253 µM,1.09
same,relative viability,[2]; first compound 0.8 µM,1.08
same,relative viability,[2]; first compound 2.53 µM,1.17
same,relative viability,[2]; first compound 8 µM,0.975
same,relative viability,[3]; first compound 0.08 µM,0.7
same,relative viability,[3]; first compound 0.253 µM,0.862
same,relative viability,[3]; first compound 0.8 µM,0.722
same,relative viability,[3]; first compound 2.53 µM,0.609
same,relative viability,[3]; first compound 8 µM,0.585
same,relative viability,[4]; first compound 0.08 µM,1.41
same,relative viability,[4]; first compound 0.253 µM,1.41
same,relative viability,[4]; first compound 0.8 µM,1.26
same,relative viability,[4]; first compound 2.53 µM,1.47
same,relative viability,[4]; first compound 8 µM,1.03
same,relative viability,[5]; first compound 0.08 µM,1.12
same,relative viability,[5]; first compound 0.253 µM,0.949
same,relative viability,[5]; first compound 0.8 µM,0.979
same,relative viability,[5]; first compound 2.53 µM,0.905
same,relative viability,[5]; first compound 8 µM,0.845
same,relative viability,[6]; first compound 0.08 µM,0.998
same,relative viability,[6]; first compound 0.253 µM,0.968
same,relative viability,[6]; first compound 0.8 µM,0.885
same,relative viability,[6]; first compound 2.53 µM,0.824
same,relative viability,[6]; first compound 8 µM,0.691
same,relative viability,[7]; first compound 0.08 µM,1.07
same,relative viability,[7]; first compound 0.253 µM,0.99
same,relative viability,[7]; first compound 0.8 µM,0.922
same,relative viability,[7]; first compound 2.53 µM,1.06
same,relative viability,[7]; first compound 8 µM,0.81
same,relative viability,[8]; first compound 0.08 µM,1.05
same,relative viability,[8]; first compound 0.253 µM,1.04
same,relative viability,[8]; first compound 0.8 µM,1.07
same,relative viability,[8]; first compound 2.53 µM,1.03
same,relative viability,[8]; first compound 8 µM,0.784
same,relative viability,[9]; first compound 0.08 µM,1.18
same,relative viability,[9]; first compound 0.253 µM,1.16
same,relative viability,[9]; first compound 0.8 µM,1.12
same,relative viability,[9]; first compound 2.53 µM,1.12
same,relative viability,[9]; first compound 8 µM,0.993
same,relative viability,[10]; first compound 0.08 µM,1.3
same,relative viability,[10]; first compound 0.253 µM,1.03
same,relative viability,[10]; first compound 0.8 µM,1.18
same,relative viability,[10]; first compound 2.53 µM,0.913
same,relative viability,[10]; first compound 8 µM,1.02
A549,relative viability,[1]; 0.08 µM,1.1
same,relative viability,[1]; 0.253 µM,1.37
same,relative viability,[1]; 0.8 µM,1.15
same,relative viability,[1]; 2.53 µM,1.03
same,relative viability,[1]; 8 µM,0.993
same,relative viability,[3]; first compound 0.08 µM,0.465
same,relative viability,[3]; first compound 0.253 µM,0.301
same,relative viability,[3]; first compound 0.8 µM,0.622
same,relative viability,[3]; first compound 2.53 µM,0.265
same,relative viability,[3]; first compound 8 µM,0.34
same,relative viability,[4]; first compound 0.08 µM,1.58
same,relative viability,[4]; first compound 0.253 µM,0.977
same,relative viability,[4]; first compound 0.8 µM,1.09
same,relative viability,[4]; first compound 2.53 µM,0.939
same,relative viability,[4]; first compound 8 µM,1.11
same,relative viability,[5]; first compound 0.08 µM,1.01
same,relative viability,[5]; first compound 0.253 µM,1.15
same,relative viability,[5]; first compound 0.8 µM,1.01
same,relative viability,[5]; first compound 2.53 µM,1.01
same,relative viability,[5]; first compound 8 µM,0.878
same,relative viability,[6]; first compound 0.08 µM,1.27
same,relative viability,[6]; first compound 0.253 µM,1.26
same,relative viability,[6]; first compound 0.8 µM,0.771
same,relative viability,[6]; first compound 2.53 µM,0.808
same,relative viability,[6]; first compound 8 µM,0.623
same,relative viability,[11]; first compound 0.08 µM,0.276
same,relative viability,[11]; first compound 0.253 µM,0.218
same,relative viability,[11]; first compound 0.8 µM,0.181
same,relative viability,[11]; first compound 2.53 µM,0.226
same,relative viability,[11]; first compound 8 µM,0.538
same,relative viability,[7]; first compound 0.08 µM,1.64
same,relative viability,[7]; first compound 0.253 µM,1.65
same,relative viability,[7]; first compound 0.8 µM,1.27
same,relative viability,[7]; first compound 2.53 µM,1.26
same,relative viability,[7]; first compound 8 µM,1.25
same,relative viability,[8]; first compound 0.08 µM,0.826
same,relative viability,[8]; first compound 0.253 µM,0.582
same,relative viability,[8]; first compound 0.8 µM,0.58
same,relative viability,[8]; first compound 2.53 µM,0.571
same,relative viability,[8]; first compound 8 µM,0.459
same,relative viability,[12]; first compound 0.08 µM,0.331
same,relative viability,[12]; first compound 0.253 µM,0.254
same,relative viability,[12]; first compound 0.8 µM,0.296
same,relative viability,[12]; first compound 2.53 µM,0.31
same,relative viability,[12]; first compound 8 µM,0.259
same,relative viability,[9]; first compound 0.08 µM,1.02
same,relative viability,[9]; first compound 0.253 µM,0.99
same,relative viability,[9]; first compound 0.8 µM,0.694
same,relative viability,[9]; first compound 2.53 µM,0.673
same,relative viability,[9]; first compound 8 µM,0.771
same,relative viability,[10]; first compound 0.08 µM,0.795
same,relative viability,[10]; first compound 0.253 µM,0.632
same,relative viability,[10]; first compound 0.8 µM,0.458
same,relative viability,[10]; first compound 2.53 µM,0.462
same,relative viability,[10]; first compound 8 µM,0.403
